Measurements taken from patent US6949577B2, “Pharmaceuticals” (Pfizer, Inc., priority 2000, dated 2005).
pKi: −log10 of the molar value. Read-outs that look alike come from different tables or passages of the source.

Tests used:
[1] = molecular target: T1, TAFIa (activated human TAFI) (Homo sapiens, UniProt Q96IY4); assay: Assay for TAFIa inhibition (Ki determination); format: biochemical
T1 sequence (Q96IY4 115-423): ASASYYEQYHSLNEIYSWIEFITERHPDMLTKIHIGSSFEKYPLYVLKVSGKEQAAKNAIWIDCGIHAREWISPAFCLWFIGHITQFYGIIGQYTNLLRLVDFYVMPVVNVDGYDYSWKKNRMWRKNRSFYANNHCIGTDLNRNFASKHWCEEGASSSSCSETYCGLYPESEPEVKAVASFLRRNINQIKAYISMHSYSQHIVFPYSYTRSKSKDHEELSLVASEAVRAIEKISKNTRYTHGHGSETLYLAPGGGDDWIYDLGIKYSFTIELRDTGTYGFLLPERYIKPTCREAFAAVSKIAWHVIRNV
Procedure: To determine the degree of TAFIa inhibition, compounds were incubated with activated TAFI, and the amount of inhibition expressed in terms of Ki.
Human TAFI (recombinant or purified) was activated by incubating 20 μl of stock solution (360 μg/ml) with 10 μl of human thrombin (10 NIH units/ml), 10 μl of rabbit thrombomodulin (30 μg/ml), 6 μl calcium chloride (50 mM) in 50 μL of 20 mM HEPES (N-[2-hydroxyethyl]piperazine-N-[2-ethanesulfonic acid]) buffer containing 150 mM sodium chloride and 0.01% TWEEN 80 (polyoxyethylene-sorbitan monooleate) pH 7.6 for 20 minutes at 22° C. At the end of the incubation period, thrombin was neutralized by the addition of 10 μL of PPACK (D-Phe-Pro-Arg chloromethyl ketone)(100 nM). TAFIa solution was stored on ice for 5 minutes and finally diluted with 175 μl of HEPES buffer.
A number of different dilutions of the test compound in water were made up. […] To each dilution was then added 20 μl furylacryloyl-alanyl-lysine (FAAL) at a standard concentration. Substrate turn over was measured by reading the absorbance of the reaction mixture at 330 nm every 15 seconds for 30 minutes. Reaction was performed at 24° C. and samples were mixed for 3 seconds prior to each absorbance reading.
A graph of % inhibition against test compound concentration was then plotted; from which was calculated the IC50 value. The Ki value may then be calculated using the Cheng-Prusoff equation.
For the first control, the assay was performed as above, but with 20 μl of water rather than a dilution of the test compound.

[2] = system: thrombi in the left circumflex (LCX) coronary artery; assay: Lysis of coronary artery thrombi by TAFIa inhibitor in conjunction with t-PA; format: in vivo, dogs; settings: for injured vessels patent at the end of the experiment: 8 dogs/group, all groups received t-PA
Source text: The study was designed with 4 groups (8 dogs/group): • (i) aspirin pre-treatment/vehicle infusion; • (ii) no pre-treatment/vehicle infusion; • (iii) no pre-treatment/TAFIa inhibitor; and • (iv) aspirin pre-treatment/TAFIa inhibitor.
Thirty minutes after initiating vehicle or compound infusion a continuous electrical current was delivered to the lumen of the left circumflex (LCX) coronary artery to cause endothelial damage and stimulate the production of a thrombus. Thrombi were allowed to mature for 1 hour prior to attempting to lyse the thrombus and cause vessel reperfusion with t-PA. A total of 4 bolus injections of t-PA (each 0.45 mg/kg i.v.) were given sequentially at 15 minute intervals. Blood flow through the coronary artery was then monitored for a further 2 hours so as to assess vessel patency. Time to vessel occlusion, and reperfusion were measured and the quantity and quality of blood flow analysed post-vessel re-perfusion. In addition, the effect of treatment on surgical bleeding, activated clotting time, cutaneous bleeding and platelet aggregation was also assessed.

[3] = TAFIa, FAAL substrate, Ki calculated from IC50 using Cheng-Prusoff equation, read-out: Ki

SMILES	pKi [1, 3]	injured vessels patent at the end of the experiment [2]	also measured
CCCn1cnc(C[C@H](CCCN)C(=O)O)c1 [Example 7, (+)-(2S)-5-Amino-2-[(1-n-propyl-1H-imidazol-4-yl)methyl]pentanoic acid]	–	8/8	blood flow post-reperfusion (FIG. 1) ([2]; dogs, t-PA 4 x 0.45 mg/kg i.v. boluses, comparison of treatment groups): far superior to tPA alone; proportion of animals in which flow was >75% of baseline at the end of the protocol ([2]; dogs, with t-PA, versus respective controls): significantly increased; period over which improvement in coronary blood flow was maintained ([2]; dogs, with t-PA, whole of the reperfusion period): 165 min; pKi [1]: 7.89
CCCn1cnc(CC(CCCCN)C(=O)O)c1 (racemic) [Example 3, (±)-6-Amino-2-[(1-n-propyl-1H-imidazol-4-yl)methyl]hexanoic acid]	6.51	–	–
CC(=O)Oc1ccccc1C(=O)O [aspirin, reference compound]	–	1/8	–

More lines, main results first:

pKi [1, 3]	SMILES	injured vessels patent at the end of the experiment [2]	also measured
6.46	NCCN[C@@H](Cc1c[nH]cn1)C(=O)O [Example 11, (2S)-2-[(2-Aminoethyl)amino]-3-(1H-imidazol-4-yl)propanoic acid]	–	–
6.71	NCCN[C@@H](Cc1cn(Cc2cncs2)cn1)C(=O)O [Example 45, (2S)-2-[(2-Aminoethyl)amino]-3-[1-(1,3-thiazol-5-ylmethyl)-1H-imidazol-4-yl]propanoic acid]	–	–
